According to patent US6608082B1, “Treatment of erectile dysfunction using isoquinoline compound melanocortin receptor ligands” (Lion Bioscience AG, priority 1998, dated 2003):

Assay: Body weight and food consumption after i.p. administration
Assay type: in vivo, Sprague-Dawley rats
Details: for reducing body weight and food consumption: rat, in vivo; for food consumption / weight gain / body weight relative to control: rats, 5 mg/kg i.p.; for food consumption / weight gain: 18 hours after injection, FIG. 6; for body weight relative to control: at 9 hours as well as 18 hours, FIG. 7
Text: Adult male Sprague-Dawley rats (175-225 g) were used to assess the effect of isoquinoline compounds on food uptake and body weight. Baseline body weight and food consumption measurements were taken for 3 days prior to start of the study (Day 0). On Day −1, the food was taken away from the animals at 5:00 PM. The next morning (Day 0), body weight measurements were taken, and the animals were divided into treatment groups with 6 animals in each group. The treatment groups were saline control, HP 228 positive control and test isoquinoline compounds. Saline was administered i.p. at 1 ml/kg. HP 228 and test isoquinoline compounds were administered i.p. at 5 mg/kg. The injections were initiated at 2:00 PM on Day 0.
Body weight and food consumption measurements were taken at 9 hr (Day 0; 11:00 PM) and at 18 hr (Day 1, 8:00 AM) after injection. At the end of the study, all evaluated parameters (9 and 18 hour body weight and food consumption) were analyzed by standard statistical methods. Significance (P<0.05) was determined by one-way ANOVA, ANOVA for repeated measures, or Student's t-test.
The level of reduction was similar to that seen with HP 228.

Compound | reducing body weight and food consumption | food consumption | weight gain | body weight relative to control
CNC(CN)CCCCN1Cc2ccccc2C(CNC2CCCCC2)C1c1ccc(-c2ccccc2)cc1 (stereo not shown) [TRG 2405-241] | particularly effective at reducing body weight and food consumption | significant decrease | significant decrease | 
CNC(CN)CCCCN1Cc2ccccc2C(CNC2CCCCC2)C1c1ccc(Cl)cc1Cl (stereo not shown) [TRG 2405-190] | particularly effective at reducing body weight and food consumption | significant decrease | significant decrease | 
CCCOc1ccc(C2C(CNC3CCCCC3)c3ccccc3CN2CCCCC(CN)NC)cc1 (stereo not shown) [TRG 2405-253] | particularly effective at reducing body weight and food consumption |  |  | significant differences
CNC(CN)CCCCN1Cc2ccccc2C(CNC2CCCCC2)C1c1ccc(Oc2ccccc2)cc1 (stereo not shown) [TRG 2405-252] | particularly effective at reducing body weight and food consumption |  |  | significant differences
